Test results: US6900202B2, “Di-substituted imineheterocyclic compounds” (priority 2000, dated 2005)

Columns and labels:
[1] = target: T1, α4β2 subtype of nicotinic acetylcholine receptors (Rattus norvegicus, UniProt P09483+P12390); assay: Binding assay at α4β2 subtype of nicotinic acetylcholine receptors ([3H]-cytisine, rat brain membrane); conditions: for control % of [3H]-cytisine binding at 1 μM of test compound: 1 μM test compound; for control % of [3H]-cytisine binding at 1 μM of test compound / control % of [3H]-cytisine binding at 10 μM of test compound: % of control binding remaining; for control % of [3H]-cytisine binding at 10 μM of test compound: 10 μM test compound
T1 construct: examined using rat brain membrane obtained from whole homogenized brain; from tissue; host or cells: whole brain membranes of Fischer-344 male rats
Source text: (§1) The methods for evaluating the binding capabilities of the compounds against nicotinic acetylcholine receptors are different by subtypes of receptors. The binding capabilities of the compounds at α4β2 nicotinic acetylcholine receptors are examined using rat brain membrane obtained from whole homogenized brain, and determining the inhibiting rate of the compounds against [^3H]-cytisine binding to said brain membrane. Furthermore, the binding capabilities of the compounds at α1β1γδ nicotinic acetylcholine receptors are examined using homogenized rat muscle, and determining the inhibiting rate of the compounds against [^3H]-α-bungarotoxin binding to said muscle membrane.
Binding Assays at α4β2 Subtype of Nicotinic Acetylcholine Receptors
The affinity of the compounds of the present invention to α4β2 subunit of nicotinic acetylcholine receptors was performed by the following method, which was modified method described by Pabreza L. A., Dhawan S. & Kellar K. J., Mol. Pharm., 39, 9-12 (1990), and by Anderson D. J. & Arneric S. P., Eur. J. Pharm., 253, 261-267 (1994).
(1) Preparation of Rat Brain Membrane Containing α4β2 subtype of Nicotinic Acetylcholine Receptors
Fischer-344 strain male rats (body weight: 200-240 g; 9 weeks old) obtained from Charles River Japan were used. Rats were housed in the breeding cage controlled of the room temperature at 23±1° C., and the humidity of 55±5% for 1 to 4 weeks. Rats (3 to 4 rats per a cage) were housed with lights on for 12 hours daily (from 7:00 to 19:00), and allowed free access to food and water.
Preparation of rat brain membrane containing α4β2 subtype of nicotinic acetylcholine receptors was performed as follow. That is, rat brains were isolated just after sacrificed by decapitation, washed with ice-cooled saline solution and then frozen at −80° C. with liquid nitrogen and stored till using. After thawing the frozen brain, the brain was homogenized in 10 volumes of buffer solution (50 mM of Tris-HCl, 120 mM of NaCl, 5 mM of KCl, 1 mM of MgCl2, 2mM of CaCl2; pH 7.4; 4° C.) using homogenizer (HG30, Hitachi Kohki Ltd.) for 30 seconds, and the homogenate were centrifuged under 1,000×G for 10 minutes at 4° C. The resulting supernatant was separated and the pellet was homogenized again with half volume of aforementioned prior buffer solution and centrifuged under the same conditions. Combined supernatant was further centrifuged under 40,000×G for 20 minutes at 4° C. The pellet was suspended in buffer solution and used for binding assays at receptors.
(2) Experiments of α4β2 Subtype of Nicotinic Acetylcholine Receptors Binding
Suspensions of membrane pellets containing 400-600 μg of protein were added to test tubes containing test compounds and [^3H]-cytisine (2 nM) in a final volume of 200 μl and incubated for 75 minutes in ice-cooled bath. The samples were isolated by vacuum filtration onto Whatman GF/B filters, which were prerinsed with 0.5% polyethylenimine just prior to sample filtration, using Brandel multi manifold cell harvester. The filters were rapidly washed with buffer solution (3×1 ml). The filters were counted in 3 ml of clearsol I (Nacalai Tesque Inc.).
The analyses of the experimental results were conducted by using the Accufit Competition Program (Beckman Ltd.).

[2] = target: T2, α1β1γδ subtype of nicotinic acetylcholine receptors (Rattus norvegicus, UniProt P25108); assay: biochemical; type: binding; conditions: % of control binding remaining; for control % of [3H]-α-Bgt binding at 100 μM of test compound: 100 μM test compound; for control % of [3H]-α-Bgt binding at 1,000 μM of test compound: 1,000 μM test compound
T2 construct: The centrifugation at 100,000×G for 60 minutes at 4° C. yielded the rat muscle extract as supernatant
Source text: as §1
Binding Assays at α1β1γδ Subtype of Nicotinic Acetylcholine Receptors
The affinity of the compounds of the present invention to α1β1γδ subtype of nicotinic acetylcholine receptors was measured by the following method, which was modified method described by Garcha H. S., Thomas P., Spivak C.
(1) Preparation of Rat Skeletal Muscles Containing α1β1γδ Subtype of Nicotinic Acetylcholine Receptors
The substantially same animals described in the Biological Experiment 1 were used.
The isolation of α1β1γδ subtype of nicotinic acetylcholine receptors was performed as follow. That is, rat posterior skeletal muscles were isolated just after sacrificed by decapitation, washed with ice-cooled saline solution and then frozen at −80° C. with liquid nitrogen and stored till using. After thawing the frozen muscles, tissue was homogenized (40% w/v) with buffer solution [2.5 mM of sodium phosphate buffer (pH:7.2), 90 mM of NaCl, 2 mM of KCl, 1 mM of EDTA, 2 mM of benzamidine, 0.1 mM of benzethonium chloride, 0.1 mM of PMSF, 0.01% of sodium azide] in Waring blender [Waring blender 34BL97; WARING PRODUCTS DIVISION DYNAMICS CORPORATION OF AMERICA) for 60 seconds. The homogenate were centrifuged under 20,000×G for 60 minutes at 4° C. The supernatant was separated and the resulting pellet was added to the same buffer (1.5 ml/g wet weight), and homogenized under the same conditions. Triton X100 (2% w/v) was added and the mixture was stirred for 3 hours at 4° C. The centrifugation at 100,000×G for 60 minutes at 4° C. yielded the rat muscle extract as supernatant. This was stored at 4° C. for up to 4 weeks, and used for binding assays at receptors.
(2) Experiments of α1β1γδ Subtype of Nicotinic Acetylcholine Receptors Binding
Receptors binding experiments were performed as follow. That is, the extract of rat muscle containing 600-900 μg of protein was added to test tubes containing test compounds and incubated for 15 minutes at 37° C. Then, to this mixture was added 1 nM of [^3H]-α-bungarotoxin (α-Bgt) and further incubated for 2 hours. The samples were isolated by vacuum filtration onto Whatman GF/B filters, which were prerinsed with 0.5% polyethylenimine just prior to sample filtration, using Brandel multi manifold cell harvester. The filters were rapidly rinsed with washing solution (10 mM of KH2PO4, 150 mM of NaCl, pH 7.2, room temperature) (5×1 ml). The filters were counted in 3 ml of clearsol I (Nacalai Tesque Inc.). The determination of nonspecific binding was incubated in the presence of 1 μM α-Bgt. […] In the receptor binding experiments, said buffer solution was added for adjusting the final concentration of BSA to be 0.05%.
The analyses of the experimental results were conducted by as described in the Biological Experiment 1.

T1 sequence (P09483 31-630): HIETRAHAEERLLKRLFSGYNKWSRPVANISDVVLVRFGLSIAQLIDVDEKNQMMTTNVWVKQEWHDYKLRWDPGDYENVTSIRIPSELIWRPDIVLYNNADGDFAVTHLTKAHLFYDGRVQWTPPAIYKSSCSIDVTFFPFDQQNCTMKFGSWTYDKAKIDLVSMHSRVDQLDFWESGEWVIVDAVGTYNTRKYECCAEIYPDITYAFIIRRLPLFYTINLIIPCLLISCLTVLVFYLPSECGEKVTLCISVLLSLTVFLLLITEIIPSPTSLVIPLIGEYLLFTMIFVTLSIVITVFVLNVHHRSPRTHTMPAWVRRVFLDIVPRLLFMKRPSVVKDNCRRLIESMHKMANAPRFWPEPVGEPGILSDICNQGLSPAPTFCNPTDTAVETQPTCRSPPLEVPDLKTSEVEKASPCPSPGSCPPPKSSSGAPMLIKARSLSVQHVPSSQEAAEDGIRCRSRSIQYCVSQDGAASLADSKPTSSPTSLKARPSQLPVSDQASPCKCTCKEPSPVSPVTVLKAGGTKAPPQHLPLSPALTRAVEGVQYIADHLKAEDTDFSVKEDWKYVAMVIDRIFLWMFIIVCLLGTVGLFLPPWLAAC
T1 sequence (P12390 25-500): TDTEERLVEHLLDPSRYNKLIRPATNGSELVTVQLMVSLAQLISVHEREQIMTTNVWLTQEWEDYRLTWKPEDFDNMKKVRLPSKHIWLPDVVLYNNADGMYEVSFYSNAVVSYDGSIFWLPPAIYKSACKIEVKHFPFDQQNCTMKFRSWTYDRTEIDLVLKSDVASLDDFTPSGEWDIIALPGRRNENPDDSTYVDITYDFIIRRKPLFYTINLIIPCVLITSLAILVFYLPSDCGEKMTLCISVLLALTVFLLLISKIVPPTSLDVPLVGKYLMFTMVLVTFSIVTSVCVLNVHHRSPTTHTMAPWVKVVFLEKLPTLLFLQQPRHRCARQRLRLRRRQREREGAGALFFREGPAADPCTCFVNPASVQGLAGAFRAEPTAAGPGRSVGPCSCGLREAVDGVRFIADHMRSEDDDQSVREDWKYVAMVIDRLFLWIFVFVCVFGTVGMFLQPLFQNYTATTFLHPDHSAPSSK
T2 sequence (P25108 21-457): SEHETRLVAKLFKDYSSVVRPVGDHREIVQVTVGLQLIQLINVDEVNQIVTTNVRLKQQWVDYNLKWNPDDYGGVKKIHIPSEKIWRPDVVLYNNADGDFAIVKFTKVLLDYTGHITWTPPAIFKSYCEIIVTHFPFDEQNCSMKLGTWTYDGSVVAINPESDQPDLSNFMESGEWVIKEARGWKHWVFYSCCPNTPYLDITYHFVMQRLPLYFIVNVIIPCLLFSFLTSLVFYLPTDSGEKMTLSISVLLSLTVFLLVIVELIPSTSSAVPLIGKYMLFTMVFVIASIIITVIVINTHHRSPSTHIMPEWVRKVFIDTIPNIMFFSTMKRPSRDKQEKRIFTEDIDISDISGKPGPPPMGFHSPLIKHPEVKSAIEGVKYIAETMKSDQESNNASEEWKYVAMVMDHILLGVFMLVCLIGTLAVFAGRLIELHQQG
T2 sequence (P25109 24-501, further chain): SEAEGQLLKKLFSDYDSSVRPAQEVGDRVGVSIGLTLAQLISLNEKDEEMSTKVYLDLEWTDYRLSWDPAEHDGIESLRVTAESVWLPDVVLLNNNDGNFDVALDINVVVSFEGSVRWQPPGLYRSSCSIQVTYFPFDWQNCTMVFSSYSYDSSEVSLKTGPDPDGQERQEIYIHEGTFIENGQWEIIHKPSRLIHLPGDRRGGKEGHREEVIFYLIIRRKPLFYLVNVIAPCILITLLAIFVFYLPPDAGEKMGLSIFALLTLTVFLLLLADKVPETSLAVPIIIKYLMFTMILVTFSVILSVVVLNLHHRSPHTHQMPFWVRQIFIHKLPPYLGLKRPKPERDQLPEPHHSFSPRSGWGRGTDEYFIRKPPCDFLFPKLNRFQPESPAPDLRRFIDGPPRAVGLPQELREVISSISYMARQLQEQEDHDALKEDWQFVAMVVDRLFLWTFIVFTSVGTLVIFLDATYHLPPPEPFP
T2 sequence (P25110 22-517, further chain): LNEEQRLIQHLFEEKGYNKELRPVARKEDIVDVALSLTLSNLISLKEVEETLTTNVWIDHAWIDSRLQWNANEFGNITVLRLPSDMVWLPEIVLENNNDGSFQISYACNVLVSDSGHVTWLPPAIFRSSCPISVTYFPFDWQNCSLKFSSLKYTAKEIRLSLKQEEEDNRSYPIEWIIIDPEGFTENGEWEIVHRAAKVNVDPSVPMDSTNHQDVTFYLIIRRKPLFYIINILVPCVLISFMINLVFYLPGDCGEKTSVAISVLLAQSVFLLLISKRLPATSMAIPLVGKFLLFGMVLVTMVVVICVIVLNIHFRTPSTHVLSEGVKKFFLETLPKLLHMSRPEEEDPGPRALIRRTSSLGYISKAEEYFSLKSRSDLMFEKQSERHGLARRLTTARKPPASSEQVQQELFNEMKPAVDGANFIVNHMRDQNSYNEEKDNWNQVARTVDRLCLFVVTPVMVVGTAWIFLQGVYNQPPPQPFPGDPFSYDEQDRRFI

Structure (SMILES) | Ki [1] | control % of [3H]-α-Bgt binding at 100 μM of test compound [2] | control % of [3H]-α-Bgt binding at 1,000 μM of test compound [2] | control % of [3H]-cytisine binding at 1 μM of test compound [1] | control % of [3H]-cytisine binding at 10 μM of test compound [1]
Clc1ccc(C/N=C2\NCCCN2Cc2ccc(Cl)nc2)cn1 [Compound 3, 1-(6-chloro-3-pyridyl)methyl-[(6-chloro-3-pyridyl)methyl]imino-1,2,3,4,5,6-hexahydropyrimidine] | 739 nM | 77% | 76% | – | –
N=C1N(Cc2ccc(Cl)nc2)CCCN1Cc1ccc(Cl)nc1 [Compound 4, 1,3-bis[(6-chloro-3-pyridyl)methyl]-2-imino-1,2,3,4,5,6-hexahydropyrimidine] | 475 nM | 49% | 30% | – | –
Clc1ccc(C/N=c2\ncccn2Cc2ccc(Cl)nc2)cn1 [Compound 5, 1-(6-chloro-3-pyridyl)methyl-2-[(6-chloro-3-pyridyl)methyl]imino-1,2-dihydropyrimidine] | – | – | – | 92% | 23%
Clc1cc/c(=N\Cc2ccc(Cl)nc2)n(Cc2ccc(Cl)nc2)c1 [Compound 6, 5-chloro-1-(6-chloro-3-pyridyl)methyl-2-[(6-chloro-3-pyridyl)methyl]imino-1,2-dihydropyridine] | – | – | – | 94% | 45%
CC1CCC/C(=N\Cc2ccc(Cl)nc2)N1Cc1ccc(Cl)nc1 (stereo not shown) [Compound 7, 1-(6-chloro-3-pyridyl)methyl-2-[(6-chloro-3-pyridyl)methyl]imino-6-methylpiperidine] | – | 85% | 52% | 85% | 75%
Cc1cs/c(=N\Cc2ccc(Cl)nc2)n1Cc1ccc(Cl)nc1 [Compound 9, 3-(6-Chloro-3-pyridyl)methyl-2-[(6-chloro-3-pyridyl)methyl]imino-4-methyl-2,3-dihydrothiazole] | 110 nM | 78% | 40% | – | –
N=c1n(Cc2ccc(Cl)nc2)ccn1Cc1ccc(Cl)nc1 [Compound 10, 1,3-bis[(6-chloro-3-pyridyl)methyl]-2-imino-2,3-dihydroimidazole] | – | – | – | 89% | 46%
C/N=C1\SCCN1Cc1ccc(Cl)nc1 [Compound 11, 3-(6-chloro-3-pyridyl)methyl-2-methylimino-thiazolidine] | – | – | – | 93% | 18%
Clc1ccc(Cn2ccs/c2=N\c2ccccc2)cn1 [Compound 12, 3-(6-Chloro-3-pyridyl)methyl-2-phenylimino-2,3-dihydrothiazole] | – | 86% | 48% | 109% | 84%
Clc1ccc(CN2CCS/C2=N\Cc2ccccc2)cn1 [Compound 14, 2-Benzylimino-3-(6-chloro-3-pyridyl)methylthiazolidine] | 123 nM | 64% | 20% | – | –
